From patent US12391648B2, “Pyridyloxy thioester derivative and preparation method therefor, herbicidal composition, and application” (Qingdao Kingagroot Chemical Compound Co., Ltd., priority 2018, dated 2025)

Key:
Assay in all cases: Post-emergence test experiment (Table 3, 1000 g/ha)
Format in all cases: in vivo
Conditions in all cases: post-emergence spray, after 3 weeks, fresh weight inhibition
Abutilon theophrasti = test system: Abutilon theophrasti
Outline: (§1)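 Activity graded levels 0-5 by fresh-weight inhibition (level 5 above 85%, level 0 below 5%), assessed 3 weeks after treatment. Plants grown in greenhouse pots were sprayed post-emergence at 2-3 leaves using acetone/tween-80 solutions with methyl oleate synergist (1.5 L/ha).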

Digitaria sanguinalis = test system: Digitaria sanguinalis
Outline: as §1

Galium spurium = test system: Galium spurium
Outline: as §1

Leptochloa chinensis = test system: Leptochloa chinensis
Outline: as §1

Monochoria vaginalis = test system: Monochoria vaginalis
Outline: as §1

Setaria viridis = test system: Setaria viridis
Outline: as §1

Compound	Activity level (growth inhibition rate) Abutilon theophrasti (Abutilon theophrasti)	Activity level (growth inhibition rate) Digitaria sanguinalis (Digitaria sanguinalis)	Activity level (growth inhibition rate) Galium spurium (Galium spurium)	Activity level (growth inhibition rate) Leptochloa chinensis (Leptochloa chinensis)	Activity level (growth inhibition rate) Monochoria Vaginalis (Monochoria vaginalis)	Activity level (growth inhibition rate) Setaria viridis (Setaria viridis)
COCCSC(=O)C(C)Oc1nc(F)c(Cl)c(N)c1Cl (stereo not drawn) [Compound 85]	5 (Level 5: the growth inhibition rate is greater than 85%)	5 (Level 5: the growth inhibition rate is greater than 85%)	5 (Level 5: the growth inhibition rate is greater than 85%)	5 (Level 5: the growth inhibition rate is greater than 85%)	5 (Level 5: the growth inhibition rate is greater than 85%)	5 (Level 5: the growth inhibition rate is greater than 85%)
CCOCSC(=O)C(C)Oc1nc(F)c(Cl)c(N)c1Cl (stereo not drawn) [Compound 86]	5 (Level 5: the growth inhibition rate is greater than 85%)	5 (Level 5: the growth inhibition rate is greater than 85%)	5 (Level 5: the growth inhibition rate is greater than 85%)	5 (Level 5: the growth inhibition rate is greater than 85%)	5 (Level 5: the growth inhibition rate is greater than 85%)	5 (Level 5: the growth inhibition rate is greater than 85%)
C=CCSC(=O)C(C)Oc1nc(F)c(Cl)c(N)c1Cl (stereo not drawn) [Compound 89]	5 (Level 5: the growth inhibition rate is greater than 85%)	5 (Level 5: the growth inhibition rate is greater than 85%)	5 (Level 5: the growth inhibition rate is greater than 85%)	5 (Level 5: the growth inhibition rate is greater than 85%)	5 (Level 5: the growth inhibition rate is greater than 85%)	5 (Level 5: the growth inhibition rate is greater than 85%)
C#CCSC(=O)C(C)Oc1nc(F)c(Cl)c(N)c1Cl (stereo not drawn) [Compound 90]	5 (Level 5: the growth inhibition rate is greater than 85%)	5 (Level 5: the growth inhibition rate is greater than 85%)	5 (Level 5: the growth inhibition rate is greater than 85%)	5 (Level 5: the growth inhibition rate is greater than 85%)	5 (Level 5: the growth inhibition rate is greater than 85%)	5 (Level 5: the growth inhibition rate is greater than 85%)
CC(Oc1nc(F)c(Cl)c(N)c1Cl)C(=O)SC/C=C/Cl (stereo not drawn) [Compound 91]	5 (Level 5: the growth inhibition rate is greater than 85%)	5 (Level 5: the growth inhibition rate is greater than 85%)	5 (Level 5: the growth inhibition rate is greater than 85%)	5 (Level 5: the growth inhibition rate is greater than 85%)	5 (Level 5: the growth inhibition rate is greater than 85%)	5 (Level 5: the growth inhibition rate is greater than 85%)
CC(Oc1nc(F)c(Cl)c(N)c1Cl)C(=O)SCC(Cl)=C(Cl)Cl (stereo not drawn) [Compound 92]	5 (Level 5: the growth inhibition rate is greater than 85%)	5 (Level 5: the growth inhibition rate is greater than 85%)	5 (Level 5: the growth inhibition rate is greater than 85%)	5 (Level 5: the growth inhibition rate is greater than 85%)	5 (Level 5: the growth inhibition rate is greater than 85%)	5 (Level 5: the growth inhibition rate is greater than 85%)
COC(=O)CSC(=O)C(C)Oc1nc(F)c(Cl)c(N)c1Cl (stereo not drawn) [Compound 93]	5 (Level 5: the growth inhibition rate is greater than 85%)	5 (Level 5: the growth inhibition rate is greater than 85%)	5 (Level 5: the growth inhibition rate is greater than 85%)	5 (Level 5: the growth inhibition rate is greater than 85%)	5 (Level 5: the growth inhibition rate is greater than 85%)	5 (Level 5: the growth inhibition rate is greater than 85%)
CCOC(=O)CSC(=O)C(C)Oc1nc(F)c(Cl)c(N)c1Cl (stereo not drawn) [Compound 94]	5 (Level 5: the growth inhibition rate is greater than 85%)	5 (Level 5: the growth inhibition rate is greater than 85%)	5 (Level 5: the growth inhibition rate is greater than 85%)	5 (Level 5: the growth inhibition rate is greater than 85%)	5 (Level 5: the growth inhibition rate is greater than 85%)	5 (Level 5: the growth inhibition rate is greater than 85%)
COC(=O)C(C)SC(=O)C(C)Oc1nc(F)c(Cl)c(N)c1Cl (stereo not drawn) [Compound 95]	5 (Level 5: the growth inhibition rate is greater than 85%)	5 (Level 5: the growth inhibition rate is greater than 85%)	5 (Level 5: the growth inhibition rate is greater than 85%)	5 (Level 5: the growth inhibition rate is greater than 85%)	5 (Level 5: the growth inhibition rate is greater than 85%)	5 (Level 5: the growth inhibition rate is greater than 85%)
C=CCOC(=O)C(C)(C)SC(=O)C(C)Oc1nc(F)c(Cl)c(N)c1Cl (stereo not drawn) [Compound 96]	5 (Level 5: the growth inhibition rate is greater than 85%)	5 (Level 5: the growth inhibition rate is greater than 85%)	5 (Level 5: the growth inhibition rate is greater than 85%)	5 (Level 5: the growth inhibition rate is greater than 85%)	5 (Level 5: the growth inhibition rate is greater than 85%)	5 (Level 5: the growth inhibition rate is greater than 85%)
CC(Oc1nc(F)c(Cl)c(N)c1Cl)C(=O)SCC(=O)N(C)C (stereo not drawn) [Compound 99]	5 (Level 5: the growth inhibition rate is greater than 85%)	5 (Level 5: the growth inhibition rate is greater than 85%)	5 (Level 5: the growth inhibition rate is greater than 85%)	5 (Level 5: the growth inhibition rate is greater than 85%)	5 (Level 5: the growth inhibition rate is greater than 85%)	5 (Level 5: the growth inhibition rate is greater than 85%)
